Assay results taken from PMC10239507, “Development of allosteric and selective CDK2 inhibitors for contraception with negative cooperativity to cyclin binding” (Nature Communications, 2023).
Entries after “also recorded” stand apart in the source; their conditions may differ.

Assays:
human CDK2 (1-298) = human CDK2 (1-298) (Homo sapiens, UniProt P24941); assay: Isothermal titration calorimetry (ITC)
[1] = target: T1, CDK2 (C118A C177S A93C R157C) (Homo sapiens, UniProt P24941, A93C/C118A/C177S/R157C); assay: Intramolecular FRET assay of CDK2 activation loop position; assay type: binding
T1 construct: made in house; cyclin A: BL21(DE3)pLysS

CDK/cyclin complexes = assay: Commercial CDK/cyclin kinase activity panel (Reaction Biology); assay type: biochemical; conditions: concentration well above its KD
GST-tagged CDK2 = target: T2, GST-tagged CDK2 (Homo sapiens, UniProt P24941); assay: Surface plasmon resonance (SPR), CDK2; assay type: binding
T2 construct: The gene encoding human CDK2 (1-298) was custom-synthesized; made in house; host or cells: E. coli BL21 DE3 RIPL

| Compound | Kd (human CDK2 (1-298)) | T∆S (human CDK2 (1-298); ITC, 25 °C) | n (binding stoichiometry) (human CDK2 (1-298); ITC, 25 °C) | ∆H (human CDK2 (1-298); ITC, 25 °C) | Kd [1] | inhibition of CDK/cyclin complexes (CDK/cyclin complexes) | fold slower dissociation rate than the allosteric inhibitors (GST-tagged CDK2) |
| --- | --- | --- | --- | --- | --- | --- | --- |
| O=C(O)c1cc(C(F)(F)F)ccc1NCCc1c[nH]c2cc(Cl)ccc12 [Compound 4, 2-((2-(6-Chloro-1H-indol-3-yl)ethyl)amino)−5-(trifluoromethyl)benzoic Acid] | 0.031 µM | 20.1 kJ/mol | 1.39 | -23 kJ/mol | 0.28 µM | poorly inhibits; also recorded: does not substantially inhibit any CDK/cyclin complex |  |
| cyclin: Bovine cyclin A (171-432 with a C-terminal 6His tag) |  |  |  |  |  |  | ≥ 10 fold |
